Experimental data taken from ChEMBL document CHEMBL1201862, “PubChem BioAssay data set” (2004).
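How tested: cells in 96-well plates exposed to compound for 48 hours at five concentrations. GI50 is the concentration that inhibits growth by half.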 Active and inactive are the calls of the source. No stated cut-off is given here; in the data, active = GI50 up to about 1.1 µM and inactive = higher. Where a SMILES comes first, the peptide text is derived from it. [ ]: non-standard residue; d: D form. The star is where a group is joined. Cbz = O=C(OCc1ccccc1)*; Aib = CC(C)(N)C(=O)O

Key:
Test in all cases: NCI tumour cell line growth inhibition, 48 h
[1] = tested on: SF-295
[2] = tested on: MDA-N
[3] = tested on: HCT-116
[4] = tested on: HL-60
[5] = tested on: COLO 205
[6] = tested on: BT-549
[7] = tested on: TK-10
[8] = tested on: SK-MEL-2
[9] = tested on: NCI-H23
[10] = tested on: OVCAR-4
[11] = tested on: RPMI-8226
[12] = tested on: RXF 393
[13] = tested on: SK-OV-3
[14] = tested on: MDA-MB-231
[15] = tested on: SW-620
[16] = tested on: CAKI-1
[17] = tested on: EKVX
[18] = tested on: 786-0
[19] = tested on: HOP-92
[20] = tested on: MCF7

Row | SMILES | GI50 [1] | GI50 [2] | GI50 [3] | GI50 [4] | GI50 [5] | GI50 [6] | GI50 [7] | GI50 [8] | GI50 [9] | GI50 [10] | GI50 [11] | GI50 [12] | GI50 [13] | GI50 [14] | GI50 [15] | GI50 [16] | GI50 [17] | GI50 [18] | GI50 [19] | GI50 [20]
1 | C[N+](C)(CCNc1ccc(NCC[N+](C)(C)Cc2ccc([N+](=O)[O-])cc2)c2c1C(=O)c1c(O)ccc(O)c1C2=O)Cc1ccc([N+](=O)[O-])cc1 | 16.7 µM (inactive) | 46.7 µM (inactive) | 9.53 µM (inactive) | > 50 µM (inactive) | 18.7 µM (inactive) | 26.5 µM (inactive) | > 50 µM (inactive) | > 50 µM (inactive) | > 50 µM (inactive) | > 50 µM (inactive) | > 50 µM (inactive) | > 50 µM (inactive) | > 50 µM (inactive) | 2.65 µM (inactive) | > 50 µM (inactive) | > 50 µM (inactive) | > 50 µM (inactive) | 8.41 µM (inactive) |  | 
2 | CCCCCCCCC[C@@H]1C[C@@H]2CCC3C(C(=O)OCCCCNC(=O)OCc4ccccc4)=C(C)N=C(N1)N32 (stereo partly drawn) | 3.44 µM (inactive) |  | 3.11 µM (inactive) | 1.98 µM (inactive) | 1.62 µM (inactive) | 3.67 µM (inactive) | 4.5 µM (inactive) | 1.92 µM (inactive) | 2.56 µM (inactive) | 3.97 µM (inactive) | 2.13 µM (inactive) | 2.55 µM (inactive) | 3.2 µM (inactive) | 2.28 µM (inactive) | 3.45 µM (inactive) | 3.62 µM (inactive) | 2.72 µM (inactive) | 1.76 µM (inactive) | 2.78 µM (inactive) | 1.94 µM (inactive)
3 | C[C@H](CS)C(=O)N1c2ccccc2C[C@H]1C(=O)O | > 100 µM (inactive) | > 100 µM (inactive) | > 100 µM (inactive) | > 100 µM (inactive) | > 100 µM (inactive) | > 100 µM (inactive) | > 100 µM (inactive) | > 100 µM (inactive) | > 100 µM (inactive) | > 100 µM (inactive) |  |  | > 100 µM (inactive) | > 100 µM (inactive) | > 100 µM (inactive) | > 100 µM (inactive) | > 100 µM (inactive) | > 100 µM (inactive) |  | > 100 µM (inactive)
4 | C(=N\c1ccc(-c2nc3ccccc3s2)cc1)/c1cccs1 | 23.2 µM (inactive) | 39.4 µM (inactive) | 52.1 µM (inactive) | < 0.01 µM (active) | 42.1 µM (inactive) | 56.2 µM (inactive) | 30.5 µM (inactive) | 38.2 µM (inactive) | 54.3 µM (inactive) | 39.9 µM (inactive) | 33.4 µM (inactive) | 27.5 µM (inactive) | 81.8 µM (inactive) |  | 75.3 µM (inactive) | 38.5 µM (inactive) | 45.2 µM (inactive) | 48.2 µM (inactive) | 28.4 µM (inactive) | 
5 | CCOC(=O)c1c[nH]c(C(=O)OCC)c1-c1cccn1-c1ccccc1 | 19.3 µM (inactive) | 31.7 µM (inactive) | 15.6 µM (inactive) | 18.4 µM (inactive) | 21.3 µM (inactive) | 25.3 µM (inactive) | 36 µM (inactive) | 14.5 µM (inactive) | 28.5 µM (inactive) |  | 14.2 µM (inactive) | 16 µM (inactive) | 28.4 µM (inactive) | 28.6 µM (inactive) | 35.2 µM (inactive) | 20.9 µM (inactive) | 24.8 µM (inactive) | 22.8 µM (inactive) | 23.3 µM (inactive) | 
6 | CC(C)(NC(=O)C(C)(C)NC(=O)OCc1ccccc1)C(=O)O (Cbz-[Aib]-[Aib]-OH) | > 100 µM (inactive) | > 100 µM (inactive) | > 100 µM (inactive) |  | > 10 µM (inactive) |  | > 100 µM (inactive) | > 100 µM (inactive) | > 100 µM (inactive) | > 100 µM (inactive) | > 100 µM (inactive) |  | > 100 µM (inactive) | > 100 µM (inactive) | > 100 µM (inactive) | > 100 µM (inactive) | > 100 µM (inactive) | > 100 µM (inactive) | > 100 µM (inactive) | > 100 µM (inactive)
7 | CN(C)/C=N/Cc1ccc2c(c1)OCO2 | > 100 µM (inactive) | > 100 µM (inactive) | > 100 µM (inactive) |  | > 100 µM (inactive) |  | > 100 µM (inactive) | > 100 µM (inactive) | > 100 µM (inactive) | > 100 µM (inactive) | > 100 µM (inactive) | > 100 µM (inactive) | > 100 µM (inactive) | > 100 µM (inactive) | > 100 µM (inactive) | > 100 µM (inactive) | > 100 µM (inactive) | > 100 µM (inactive) | > 100 µM (inactive) | > 100 µM (inactive)
8 | COC[C@@H](/N=C/C(C)(C)C)C(C)C | > 100 µM (inactive) | > 100 µM (inactive) | > 100 µM (inactive) | > 100 µM (inactive) | > 100 µM (inactive) |  | 72.1 µM (inactive) | > 100 µM (inactive) | > 100 µM (inactive) | > 100 µM (inactive) | > 100 µM (inactive) | > 100 µM (inactive) | > 100 µM (inactive) | > 100 µM (inactive) | > 100 µM (inactive) | > 100 µM (inactive) | > 100 µM (inactive) | > 100 µM (inactive) | > 100 µM (inactive) | > 100 µM (inactive)
9 | COc1c2c(c(CC=C(C)C)c3oc(=O)c(-c4ccc(O)cc4)c(O)c13)OC(C)(C)C=C2 [LONCHOCARPIC ACID] | 28.2 µM (inactive) |  | 15.7 µM (inactive) | 21.2 µM (inactive) | 23.4 µM (inactive) | 41.8 µM (inactive) | 32.4 µM (inactive) | 19.6 µM (inactive) | 43.9 µM (inactive) | 17.7 µM (inactive) | 19.5 µM (inactive) | 1.41 µM (inactive) |  | 24.8 µM (inactive) | 44.1 µM (inactive) | 40.6 µM (inactive) | 22.3 µM (inactive) | 25.5 µM (inactive) | 27.2 µM (inactive) | 16.8 µM (inactive)
10 | CCOC(=O)CC1(N)CC2c3ccccc3OC(=O)C2C(=O)N1 (stereo not drawn) |  | > 100 µM (inactive) | > 100 µM (inactive) | > 100 µM (inactive) | > 100 µM (inactive) | > 100 µM (inactive) | > 100 µM (inactive) | > 100 µM (inactive) | > 100 µM (inactive) | > 100 µM (inactive) | > 100 µM (inactive) | > 100 µM (inactive) |  | > 100 µM (inactive) | > 100 µM (inactive) | > 100 µM (inactive) | > 100 µM (inactive) | > 100 µM (inactive) | > 100 µM (inactive) | 
11 | O=C(NNC(=S)NC1CCCCC1)c1csc(NC(=S)NC2CCCCC2)n1 | 5.87 µM (inactive) |  | 4.27 µM (inactive) | > 100 µM (inactive) | 3.22 µM (inactive) | 2.9 µM (inactive) | 6.38 µM (inactive) | 15.5 µM (inactive) | 10.4 µM (inactive) |  | 9.86 µM (inactive) |  | 11.7 µM (inactive) | 17.8 µM (inactive) | 5.13 µM (inactive) | 7.23 µM (inactive) | > 100 µM (inactive) | 7.64 µM (inactive) |  | 7.55 µM (inactive)
12 | COc1cc2c(cc1OC)C(=O)N(c1ccc(O)cc1)C2 | > 100 µM (inactive) | > 100 µM (inactive) | > 100 µM (inactive) | > 100 µM (inactive) | > 100 µM (inactive) | > 100 µM (inactive) | > 100 µM (inactive) | > 100 µM (inactive) | > 100 µM (inactive) | > 100 µM (inactive) | > 100 µM (inactive) | > 100 µM (inactive) | > 100 µM (inactive) | > 100 µM (inactive) | > 100 µM (inactive) | > 100 µM (inactive) | > 100 µM (inactive) | > 100 µM (inactive) | > 100 µM (inactive) | 
13 | N=C(N)N/N=C/c1c(-c2cccc([N+](=O)[O-])c2)nc2n1CCS2 | 26.2 µM (inactive) |  | 20.5 µM (inactive) | 19.1 µM (inactive) | 8.32 µM (inactive) | 15.9 µM (inactive) | 23.4 µM (inactive) | 17.2 µM (inactive) | 25.5 µM (inactive) | 13.9 µM (inactive) | 34.9 µM (inactive) | 19.3 µM (inactive) |  | 16.7 µM (inactive) | 5.45 µM (inactive) | 31.7 µM (inactive) | 25.4 µM (inactive) | 29.3 µM (inactive) | 14.9 µM (inactive) | 11 µM (inactive)
14 | O=C(Nc1cccc(F)c1)c1cc2ccc(O)cc2o/c1=N\c1ccccc1F | 8.39 µM (inactive) | 4.82 µM (inactive) | 4.03 µM (inactive) | 2.45 µM (inactive) | 21.1 µM (inactive) | 2.13 µM (inactive) |  | 4.8 µM (inactive) | 2.18 µM (inactive) | 3.56 µM (inactive) | 1.69 µM (inactive) |  | 5.36 µM (inactive) |  | 4.7 µM (inactive) | 4.39 µM (inactive) | 2.18 µM (inactive) | 4.99 µM (inactive) |  | 3.33 µM (inactive)
15 | C/C(=C\CO)CC/C=C(\C)CNc1ccccc1 | 38.5 µM (inactive) |  | 54.5 µM (inactive) | 30.1 µM (inactive) | 41.2 µM (inactive) | 18.6 µM (inactive) | 20.5 µM (inactive) |  | < 0.01 µM (active) |  |  | 48.1 µM (inactive) | > 100 µM (inactive) | 34.8 µM (inactive) | 50.2 µM (inactive) | 57.5 µM (inactive) | 23.9 µM (inactive) | > 100 µM (inactive) |  | 78.7 µM (inactive)
